Data as given in article PMC5090206, “Fluselenamyl: A Novel Benzoselenazole Derivative for PET Detection of Amyloid Plaques (Aβ) in Alzheimer’s Disease” (Scientific Reports, 2016).

Experiments:
cortical Aβ plaques = cortical Aβ plaques (Homo sapiens, UniProt P05067); assay: In vitro autoradiography of AD frontal cortex sections; format: binding
Procedure: Literature precedents indicate the presence of at least three different binding sites, characterized as BS1, BS2 and BS3 on the Aβ fibrils in vitro[24] and extracts from AD homogenates. […] Overall, these investigations indicate that different PET tracers may be beneficial to better understand Aβ pathophysiology in vivo. […] Further, to evaluate ability of [^18F]-9 for labeling Aβ in autopsy confirmed human brain sections, autoradiography and immunohistochemical correlations were also performed.
Scientific Reports Version of August 4, 2016
Autoradiography of Human Brain Sections and Immunohistochemistry Correlation Autoradiography and immunohistochemistry (IHC) were performed as previously described14 with minor modifications. Briefly, a sample of frozen AD frontal cortex was sectioned using a TBS Minotome PLUS Cryostat set at a thickness of 12 microns. The tissue sections were thaw-mounted onto Superfrost Plus (Fisherbrand 12-550-15) microscope slides and allowed to air dry for 10–15 min prior to storage at -80 °C. […]
Autoradiography images were obtained on GE Typhoon System FLA-9500 (Tokyo, Japan) at 25 µm resolution. […] IHC images were obtained on a NanoZoomer 2.0-HT System ([…]) at 20x resolution with DAPI and TRITC fluorescence filters using NDP.scan 2.5 software ([…]). […]

Aβ plaques = Aβ plaques (Homo sapiens, UniProt P05067); assay: MicroPET/CT imaging in APP/PS1 and WT mice; format: in vivo; settings: for distribution volume ratio (DVR): cortical ROI, cerebellum reference, RefLogan
Aβ plaques, sequence (P05067 672-711 limits assumed): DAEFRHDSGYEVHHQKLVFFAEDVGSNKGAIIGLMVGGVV
Procedure: To directly access the potential of [^18F]-9 to bind Aβ plaques in vivo, we performed microPET/CT imaging in age-matched APP^+/−/PS1^+/− mice (n = 3) compared their WT counterparts, 5 min-2 h post tail-vein injection. […] Time activity curves (TAC) also indicated higher retention of activity within transgenic mice brains compared with their WT counterparts (Fig. 10). Additionally, ROI (cortical regions) were also analyzed using linearized method with a reference region (cerebellum) via Reference Logan plot (RefLogan), and distribution volume ratios (DVR) were obtained. The analysis indicated a statistically significant DVR value of 1.18 for transgenic mice brain compared with that of 1.03 for WT brains. These smaller differences in DVR values of targeted regions in transgenic mice compared with that of WT counterparts could also be attributed to a lack of true negative reference region in aged PS1/APP mice[57]. […] The differences between these tracers in this rodent model could be attributed to ability of [^18F]-9 for targeting both diffuse and fibrillary plaques. To further evaluate, whether or not [^18F]-9 offers significant advantage over other approved tracers, the agent would need to be further investigated for its performance in other AD rodent models (APP23 and Tg2576).
Scientific Reports Version of August 4, 2016 approved guidelines. 15-month-old APP+/-/PS1+/- mice were imaged using intravital multiphoton microscopy to assess pharmacokinetic profiles of the 5. The thinned-skull cranial windows were prepared on the day prior to imaging, as previously described16-18. Briefly, mice were anesthetized under volatile isoflurane (2% induction, 1.5% maintenance), the scalp and periosteum were removed to expose the skull.
A speed drill and microsurgical blade (Surgistar) were used to thin the skull until the skull window ([…]
For imaging 5 labeled plaques, two-photon fluorescence was generated with 800 nm excitation, and fluorescent emission was detected in the range of 435-485nm. […]

Lipophilicity (log P) = format: physicochemical; settings: octanol/water

cortical Aβ plaques, sequence (P05067 672-711 limits assumed): as above

Row | SMILES | labeling in autoradiography (cortical Aβ plaques; 2 nM, 60 min, AD frontal cortex sections (12 μm)) | higher retention in transgenic mice brains vs WT (Aβ plaques; APP+/−/PS1+/− vs WT mice, n = 3, p < 0.05) [folds] | distribution volume ratio (DVR) (Aβ plaques; WT brains) | distribution volume ratio (DVR) (Aβ plaques; transgenic mice brain) | logP (Lipophilicity (log P)) | effect on [18F]-9 binding in autoradiography (cortical Aβ plaques; 1 μM cold ligand with 2 nM [18F]-9)
1 | CN(C)c1ncc(/C=C\c2nc3cc(OCC[18F])ccc3[se]2)cn1 [[^18F]-9] | showed labeling of cortical Aβ plaques | 1.2 | 1.03 | 1.18 | 1.28 | 
2 | CN(C)c1ncc(/C=C\c2nc3cc(OCCF)ccc3[se]2)cn1 [compound 5, (Z)-5-(2-(5-(2-fluoroethoxy)benzo[d][1,3]selenazol-2-yl)vinyl)-N,N-dimethylpyrimidin-2-amine] |  |  |  |  |  | binding was inhibited
